This is an account of results in patent publication US12582670B2, “Lignin solvation using aqueous biologically compatible buffers” (priority 2019, dated 2026).

Entries after “also recorded” stand apart in the source; their conditions may differ.

The test system of assay [1] is S. agalactiae (NCTC 8181). Description: β-lactam disk diffusion susceptibility test with and without lignin. The format is cell-based, Streptococcus agalactiae. As to conditions: disks 10 μg penicillin, 10 μg ampicillin, 30 μg amoxicillin+clavulanic acid, 24 h. How it is done: (§1) Example 13. Sensitivity of S. agalactiae and S. uberis to β-lactams and lignin. Type strains of S. agalactiae and S. uberis Diemhofer (NCTC 8181 and NCTC 3858, respectively) were obtained from the American Type Culture Collection (ATCC) as lyophilized pellets. Cells were revived by resuspension in 5 mL Todd Hewitt broth (THB, 3% w/v) and static incubation for 24 h at 37° C. Culture OD600 was measured and the volume to achieve OD600=0.025 was added to 50 mL fresh THB in 250 mL Erlenmeyer flasks and grown for 2 hours; S. agalactiae cultures were supplemented with 1 μM hemin and 10 μM menaquinone and grown at 37° C. and 200 rpm, while S. uberis was grown statically at 37° C. Cultures were centrifuged at 4500 rpm for 10 minutes. Due to differences in pellet sizes, S. agalactiae pellets were resuspended in 1 mL Hank's Balanced Salt Solution (HBSS), and S. uberis pellets were resuspended in 400 μL HBSS in order to normalize the OD600 of the two cell suspensions. […] Paper disks containing 10 μg penicillin, 10 μg ampicillin, and 30 μg amoxicillin+clavulanic acid (Oxoid, Basingstoke, UK) were placed on the agar, then incubated for 24 h at 37° C. Plates were inspected for zones of clearance around the disks indicating susceptibility.
(In agar diffusion tests the substance spreads into inoculated agar from a disc or well.)

Assay [2] deals with S. uberis Diemhofer (NCTC 3858). The assay is described as above. Particulars: disks 10 μg penicillin, 10 μg ampicillin, 30 μg amoxicillin+clavulanic acid, 24 h. Type of assay: cell-based, Streptococcus uberis. How it is done: as §1
In assay [3] the test system is S. aureus UAMS-1 (methicillin-sensitive, MSSA). The assay can be described thus: β-lactam disk diffusion susceptibility test. The format is cell-based, Staphylococcus aureus. As to conditions: disks 0.2 μg oxacillin, 2 μg ampicillin, 2 μg penicillin, 24 h. How it is done:
(§2) Example 9. β-lactam disk diffusion susceptibility test. […] Methicillin-susceptible and methicillin-resistant S. aureus, UAMS-1 and LAC-13C, respectively, were streaked for isolation on tryptic soy agar (TSA) plates and incubated for 24 hours at 37° C. Overnight cultures were prepared by picking a single colony of each strain from its plate and adding to separate 3 mL sterile tryptic soy broth (TSB) in a 5 mL culture tube and incubating 14-16 h at 37° C. and 250 rpm. Next, the optical density at 600 nm (OD600) was measured to prepare fresh 50 mL cultures with OD600=0.1 to be grown for 2-3 hours at 37° C. and 250 rpm. Cultures were pelleted by centrifugation at 4500 rpm, then resuspended and concentrated in 500 μL sterile 1× Hank's Balanced Salt Solution (HBSS). […] To achieve lawn-style growth, cells were spread across the plates with sterile glass beads.

The subject of assay [4] is S. aureus LAC-13C (methicillin-resistant, MRSA). The assay can be described thus: β-lactam disk diffusion susceptibility test. As to conditions: disks 1 μg oxacillin, 10 μg ampicillin, 10 μg penicillin, 24 h. Type of assay: cell-based, Staphylococcus aureus. How it is done:
as §2

The subject of assay [5] is S. aureus UAMS-1. The assay can be described thus: Tunicamycin disk diffusion assay. The format is cell-based, Staphylococcus aureus. Particulars: 2 μg disk, 24 h. How it is done: Tunicamycin disk diffusion assay: S. aureus UAMS-1 cultures were prepared by inoculating separate 15-mL culture tubes containing 3 mL sterile 3% (w/v) TSB with a single colony and incubated 14-16 h at 37° C. while shaking at 250 rpm. Fresh 50-mL cultures with an initial OD600=0.025 were prepared and incubated for 2 h at 37° C. and 250 rpm. Cells were collected by centrifugation at 4,500 rpm and resuspended in 500 μL sterile Hank's Balanced Salt Solution (HBSS; Corning, Corning, NY). […] Cells were spread across the plates with sterile glass beads and the plates were left open to dry in a clean laminar-flow hood for 10-15 min. […] Three biological replicates were analyzed.

The mark [6] stands for this setting: in the presence of 5 mg/mL lignin.
The mark [7] stands for this setting: TSA with 50 mM MOPS and 5 mg/mL lignin.
[8] abbreviates: TSA without lignin (50 mM MOPS).

For `CC1(C)S[C@@H]2[C@H](NC(=O)[C@H](N)c3ccccc3)C(=O)N2[C@H]1C(=O)O` [ampicillin], the “sensitivity (zone of clearance around disk)” value (“sensitivity” for short) in assay [1] (setting [6]) is listed as “highly sensitive”; in assay [1] (without lignin (50 mM MOPS)) it was “some susceptibility; also recorded: moderately sensitive”; in assay [2] (setting [6]), “highly sensitive”; in assay [2] (without lignin (50 mM MOPS)), “some susceptibility; also recorded: moderately sensitive”. Besides, the “susceptibility (zone of clearance around disk)” value in assay [3] (setting [7]) is recorded as “at least partially sensitive/susceptible; also recorded: increased sensitivity/susceptibility”; in assay [3] (setting [8]) it was “completely or nearly completely resistant; also recorded: moderately resistant”; in assay [4] (setting [7]), “increased sensitivity/susceptibility”.

As for `Cc1onc(-c2ccccc2)c1C(=O)N[C@@H]1C(=O)N2[C@@H]1SC(C)(C)[C@@H]2C(=O)O` [oxacillin], the “susceptibility (zone of clearance around disk)” value in assay [3] (setting [7]) is listed as “increased sensitivity/susceptibility”; in assay [3] (setting [8]), “sensitive/susceptible”; in assay [4] (setting [7]), “sensitive; also recorded: increased sensitivity/susceptibility”; in assay [4] (setting [8]) it was “completely resistant”.

For amoxicillin+clavulanic acid, the “sensitivity” value is “highly sensitive” in assay [1] (setting [6]), “some susceptibility; also recorded: moderately sensitive” in assay [1] (without lignin (50 mM MOPS)), “highly sensitive” in assay [2] (setting [6]) and “some susceptibility; also recorded: moderately sensitive” in assay [2] (without lignin (50 mM MOPS)).

In the case of penicillin, the “sensitivity” value in assay [1] (setting [6]) is “highly sensitive”; in assay [1] (without lignin (50 mM MOPS)), “some susceptibility; also recorded: moderately sensitive”; in assay [2] (setting [6]), “highly sensitive”; in assay [2] (without lignin (50 mM MOPS)), “some susceptibility; also recorded: moderately sensitive”. In addition, the “susceptibility (zone of clearance around disk)” value in assay [3] (setting [7]) was “at least partially sensitive/susceptible; also recorded: increased sensitivity/susceptibility”; in assay [3] (setting [8]), “completely or nearly completely resistant; also recorded: moderately resistant”; in assay [4] (setting [7]), “increased sensitivity/susceptibility”.

For the compound tunicamycin, the “zone of clearance around disk” value in assay [5] (TSA with 50 mM MOPS + 5 mg/mL lignin) is recorded as “susceptibility”; in assay [5] (TSA with 50 mM MOPS + 5 mg/mL lignin, listed as Tunicamycin), “a clearance zone was observed”; in assay [5] (TSA with 50 mM MOPS, no lignin) it was “tolerance of the antibiotic”; in assay [5] (TSA with 50 mM MOPS, no lignin, listed as Tunicamycin), “No clearance zone was observed”.
